Measured values reported in PMC7206119, “RIP1 inhibition blocks inflammatory diseases but not tumor growth or metastases” (Cell Death and Differentiation, 2019).

Assays:
Assay in all cases: biochemical
Parameters in all cases: DiscoverX kinase panel, active-site competition binding (KINOMEscan type), percent of control at one concentration
Details in all cases: competition binding, percent of control
[1] = target: NEK7 (Homo sapiens, UniProt Q8TDX7)
[2] = target: T1, ABL1(F317L)-nonphosphorylated (Homo sapiens, UniProt P00519, F317L)
T1 construct: nonphosphorylated

[3] = target: SLK (Homo sapiens, UniProt Q9H2G2)
[4] = target: AURKB (Homo sapiens, UniProt Q96GD4)
Chain of AURKB (Q96GD4 whole entry): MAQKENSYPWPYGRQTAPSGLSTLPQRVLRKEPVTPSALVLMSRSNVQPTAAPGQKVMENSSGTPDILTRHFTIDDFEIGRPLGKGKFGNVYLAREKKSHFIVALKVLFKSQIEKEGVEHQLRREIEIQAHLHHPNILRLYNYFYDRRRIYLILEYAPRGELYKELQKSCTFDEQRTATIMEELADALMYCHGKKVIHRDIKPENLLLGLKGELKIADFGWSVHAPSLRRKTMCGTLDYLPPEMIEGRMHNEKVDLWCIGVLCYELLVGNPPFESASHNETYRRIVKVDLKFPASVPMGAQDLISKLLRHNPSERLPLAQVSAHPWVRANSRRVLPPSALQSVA

[5] = target: CSNK1G3 (Homo sapiens, UniProt Q9Y6M4)
[6] = target: T2, IKK-beta (Homo sapiens, UniProt O14920)
T2 construct: gene IKBKB
T2 sequence (O14920 whole entry): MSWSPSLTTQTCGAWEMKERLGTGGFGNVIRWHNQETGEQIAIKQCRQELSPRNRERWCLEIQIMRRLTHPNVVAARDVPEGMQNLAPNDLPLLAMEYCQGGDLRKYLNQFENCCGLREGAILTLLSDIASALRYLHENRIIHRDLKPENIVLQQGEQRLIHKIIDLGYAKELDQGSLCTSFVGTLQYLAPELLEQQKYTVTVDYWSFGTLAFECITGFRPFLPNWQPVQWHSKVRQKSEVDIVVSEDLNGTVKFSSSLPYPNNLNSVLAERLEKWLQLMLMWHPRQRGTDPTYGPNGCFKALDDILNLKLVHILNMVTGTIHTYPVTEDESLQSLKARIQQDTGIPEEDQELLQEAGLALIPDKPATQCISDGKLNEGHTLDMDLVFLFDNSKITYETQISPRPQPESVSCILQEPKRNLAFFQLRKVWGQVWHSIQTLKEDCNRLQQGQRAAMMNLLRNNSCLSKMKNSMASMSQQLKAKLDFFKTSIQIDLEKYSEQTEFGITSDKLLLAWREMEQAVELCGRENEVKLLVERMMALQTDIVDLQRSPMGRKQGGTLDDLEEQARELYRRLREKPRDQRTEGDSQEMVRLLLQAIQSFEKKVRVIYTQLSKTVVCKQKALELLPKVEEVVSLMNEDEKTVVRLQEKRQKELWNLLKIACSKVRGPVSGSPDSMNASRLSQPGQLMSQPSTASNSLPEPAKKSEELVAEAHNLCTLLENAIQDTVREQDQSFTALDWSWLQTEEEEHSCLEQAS

[7] = target: HASPIN (Homo sapiens, UniProt Q8TF76)
Chain of HASPIN (Q8TF76 whole entry): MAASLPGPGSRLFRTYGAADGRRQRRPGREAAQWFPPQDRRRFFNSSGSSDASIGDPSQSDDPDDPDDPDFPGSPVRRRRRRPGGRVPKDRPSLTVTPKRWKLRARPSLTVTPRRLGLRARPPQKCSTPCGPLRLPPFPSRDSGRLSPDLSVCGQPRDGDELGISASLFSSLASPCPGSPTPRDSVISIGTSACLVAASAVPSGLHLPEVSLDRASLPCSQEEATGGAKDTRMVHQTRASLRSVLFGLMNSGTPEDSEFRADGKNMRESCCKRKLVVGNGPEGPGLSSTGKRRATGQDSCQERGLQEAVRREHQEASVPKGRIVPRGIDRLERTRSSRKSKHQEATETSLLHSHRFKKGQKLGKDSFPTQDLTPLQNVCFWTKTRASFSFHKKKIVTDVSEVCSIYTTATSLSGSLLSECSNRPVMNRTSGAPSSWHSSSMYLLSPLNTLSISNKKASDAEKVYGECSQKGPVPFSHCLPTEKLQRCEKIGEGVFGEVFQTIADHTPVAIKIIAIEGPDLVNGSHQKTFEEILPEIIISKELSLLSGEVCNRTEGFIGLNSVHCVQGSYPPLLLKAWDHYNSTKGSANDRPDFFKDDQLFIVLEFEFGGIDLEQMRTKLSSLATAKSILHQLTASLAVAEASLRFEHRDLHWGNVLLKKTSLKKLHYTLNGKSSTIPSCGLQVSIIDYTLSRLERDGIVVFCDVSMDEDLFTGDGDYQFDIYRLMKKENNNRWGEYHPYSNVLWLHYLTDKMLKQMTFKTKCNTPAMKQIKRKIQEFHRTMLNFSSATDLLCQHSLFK

[8] = target: GSK3B (Homo sapiens, UniProt P49841)
[9] = target: T3, OSR1 (Homo sapiens, UniProt O95747)
T3 construct: gene OXSR1

[10] = target: GRK4 (Homo sapiens, UniProt P32298)
[11] = target: T4, p38-beta (Homo sapiens, UniProt Q15759)
T4 construct: gene MAPK11
T4 sequence (Q15759 whole entry): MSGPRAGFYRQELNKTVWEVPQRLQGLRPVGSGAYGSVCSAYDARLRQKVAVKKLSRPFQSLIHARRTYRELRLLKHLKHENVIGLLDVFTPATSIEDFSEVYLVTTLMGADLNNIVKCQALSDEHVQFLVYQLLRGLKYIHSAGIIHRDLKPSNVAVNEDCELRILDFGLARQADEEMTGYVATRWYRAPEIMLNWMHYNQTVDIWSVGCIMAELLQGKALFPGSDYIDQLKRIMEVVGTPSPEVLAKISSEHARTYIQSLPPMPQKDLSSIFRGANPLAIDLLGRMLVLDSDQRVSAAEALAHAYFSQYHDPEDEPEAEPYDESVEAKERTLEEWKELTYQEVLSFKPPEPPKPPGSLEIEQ

[12] = target: ACVR2B (Homo sapiens, UniProt Q13705)
[13] = target: T5, PFCDPK1(P.falciparum) (Plasmodium falciparum, UniProt P62344)
T5 construct: gene CDPK1
T5 sequence (P62344 whole entry): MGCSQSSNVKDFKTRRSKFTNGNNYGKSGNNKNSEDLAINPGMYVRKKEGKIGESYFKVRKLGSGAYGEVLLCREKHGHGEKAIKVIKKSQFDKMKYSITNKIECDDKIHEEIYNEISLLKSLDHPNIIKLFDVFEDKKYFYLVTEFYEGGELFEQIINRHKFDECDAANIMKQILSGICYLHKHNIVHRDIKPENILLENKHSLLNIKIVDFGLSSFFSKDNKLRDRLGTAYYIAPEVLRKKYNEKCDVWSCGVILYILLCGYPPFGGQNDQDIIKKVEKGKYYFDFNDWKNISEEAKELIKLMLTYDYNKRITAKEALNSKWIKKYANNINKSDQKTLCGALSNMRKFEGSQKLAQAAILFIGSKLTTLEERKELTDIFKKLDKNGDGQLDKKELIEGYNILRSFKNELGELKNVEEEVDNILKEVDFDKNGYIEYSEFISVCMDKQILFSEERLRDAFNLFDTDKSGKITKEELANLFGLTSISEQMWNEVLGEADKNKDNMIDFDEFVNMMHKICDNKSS

[14] = target: MERTK (Homo sapiens, UniProt Q12866)
[15] = target: T6, LZK (Homo sapiens, UniProt O43283)
T6 construct: gene MAP3K13
T6 sequence (O43283 whole entry): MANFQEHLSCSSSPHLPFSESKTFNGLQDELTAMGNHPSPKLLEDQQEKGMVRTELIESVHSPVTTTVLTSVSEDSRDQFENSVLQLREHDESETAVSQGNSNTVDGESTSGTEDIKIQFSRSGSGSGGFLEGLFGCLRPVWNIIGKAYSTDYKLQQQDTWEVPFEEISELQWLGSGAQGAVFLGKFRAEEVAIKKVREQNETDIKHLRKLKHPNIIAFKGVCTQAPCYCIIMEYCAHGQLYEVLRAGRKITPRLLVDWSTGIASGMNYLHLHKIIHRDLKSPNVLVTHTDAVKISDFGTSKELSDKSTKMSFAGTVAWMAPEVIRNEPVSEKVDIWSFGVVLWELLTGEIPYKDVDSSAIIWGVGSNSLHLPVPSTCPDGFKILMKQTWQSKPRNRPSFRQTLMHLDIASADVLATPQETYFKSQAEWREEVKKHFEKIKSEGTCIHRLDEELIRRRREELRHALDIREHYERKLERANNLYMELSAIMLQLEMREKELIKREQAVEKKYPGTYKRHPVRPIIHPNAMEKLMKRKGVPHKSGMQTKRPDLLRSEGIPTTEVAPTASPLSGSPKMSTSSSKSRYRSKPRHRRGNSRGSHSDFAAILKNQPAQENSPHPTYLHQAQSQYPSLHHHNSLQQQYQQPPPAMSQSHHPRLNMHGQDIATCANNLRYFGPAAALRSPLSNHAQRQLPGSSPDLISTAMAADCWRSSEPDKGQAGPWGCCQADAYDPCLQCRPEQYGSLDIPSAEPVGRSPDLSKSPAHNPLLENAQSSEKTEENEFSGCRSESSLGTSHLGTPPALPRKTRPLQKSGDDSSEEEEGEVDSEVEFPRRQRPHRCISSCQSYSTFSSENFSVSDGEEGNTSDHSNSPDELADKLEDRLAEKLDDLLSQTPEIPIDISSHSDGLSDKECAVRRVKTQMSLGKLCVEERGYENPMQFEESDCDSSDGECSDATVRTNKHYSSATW

[16] = target: PKNB(M.tuberculosis) (Mycobacterium tuberculosis, UniProt P9WI81)
Chain of PKNB(M.tuberculosis) (P9WI81 whole entry): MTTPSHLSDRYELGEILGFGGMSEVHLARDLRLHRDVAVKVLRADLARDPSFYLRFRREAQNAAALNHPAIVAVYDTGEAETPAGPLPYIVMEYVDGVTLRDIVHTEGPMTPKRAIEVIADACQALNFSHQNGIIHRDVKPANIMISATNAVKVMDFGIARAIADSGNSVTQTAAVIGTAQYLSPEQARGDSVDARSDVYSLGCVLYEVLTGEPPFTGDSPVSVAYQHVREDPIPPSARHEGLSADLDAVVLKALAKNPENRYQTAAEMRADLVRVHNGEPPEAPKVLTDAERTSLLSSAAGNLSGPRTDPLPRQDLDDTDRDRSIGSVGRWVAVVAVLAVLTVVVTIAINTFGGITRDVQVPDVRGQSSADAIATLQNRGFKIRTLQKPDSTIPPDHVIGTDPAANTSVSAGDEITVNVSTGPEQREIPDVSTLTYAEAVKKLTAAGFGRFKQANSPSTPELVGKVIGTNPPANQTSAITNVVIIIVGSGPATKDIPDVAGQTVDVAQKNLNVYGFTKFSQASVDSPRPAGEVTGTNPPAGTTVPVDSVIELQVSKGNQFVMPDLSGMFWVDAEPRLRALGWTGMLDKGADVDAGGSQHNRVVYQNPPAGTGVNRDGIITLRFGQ

[17] = target: TNK2 (Homo sapiens, UniProt Q07912)
[18] = target: BMPR1B (Homo sapiens, UniProt O00238)
[19] = target: STK16 (Homo sapiens, UniProt O75716)
Chain of STK16 (O75716 whole entry): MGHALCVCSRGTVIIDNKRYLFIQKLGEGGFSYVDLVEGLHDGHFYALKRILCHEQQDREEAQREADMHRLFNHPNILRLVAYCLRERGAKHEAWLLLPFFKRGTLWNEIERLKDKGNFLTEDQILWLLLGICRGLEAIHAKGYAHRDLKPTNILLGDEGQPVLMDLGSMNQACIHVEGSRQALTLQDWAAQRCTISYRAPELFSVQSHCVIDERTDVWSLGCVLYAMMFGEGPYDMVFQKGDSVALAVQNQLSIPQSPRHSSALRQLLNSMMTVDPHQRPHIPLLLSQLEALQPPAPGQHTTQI

[20] = target: T7, PFTK1 (Homo sapiens, UniProt O94921)
T7 construct: gene CDK14

[21] = target: CAMKK2 (Homo sapiens, UniProt Q96RR4)

Chain of NEK7 (Q8TDX7 whole entry): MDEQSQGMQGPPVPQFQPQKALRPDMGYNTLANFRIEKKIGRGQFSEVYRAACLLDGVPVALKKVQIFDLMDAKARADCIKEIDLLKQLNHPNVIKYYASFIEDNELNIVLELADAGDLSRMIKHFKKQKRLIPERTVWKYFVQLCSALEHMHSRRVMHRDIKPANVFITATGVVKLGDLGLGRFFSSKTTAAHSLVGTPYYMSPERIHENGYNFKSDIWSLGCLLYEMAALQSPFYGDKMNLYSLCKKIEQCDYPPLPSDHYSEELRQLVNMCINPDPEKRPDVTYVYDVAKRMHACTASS

## COc1cc2c(cn1)N(C)C(=O)[C@@H](NC(=O)c1nc3n(n1)[C@H](c1ccccc1)CC3)CC2 [GNE684, (S)-N-((S)-7-methoxy-1-methyl-2-oxo-2,3,4,5-tetrahydro-1H-pyrido[3,4-b]azepin-3-yl)-5-phenyl-6,7-dihydro-5H-pyrrolo[1,2-b][1,2,4]triazole-2-carboxamide]
[1]
  remaining binding at 10 µM: 97%
[2]
  remaining binding at 10 µM: 79%
[3]
  remaining binding at 10 µM: 100%
[4]
  remaining binding at 10 µM: 84%
[5]
  remaining binding at 10 µM: 95%
[6]
  remaining binding at 10 µM: 100%
[7]
  remaining binding at 10 µM: 100%
[8]
  remaining binding at 10 µM: 96%
[9]
  remaining binding at 10 µM: 93%
[10]
  remaining binding at 10 µM: 100%
[11]
  remaining binding at 10 µM: 97%
[12]
  remaining binding at 10 µM: 94%
[13]
  remaining binding at 10 µM: 100%
[14]
  remaining binding at 10 µM: 90%
[15]
  remaining binding at 10 µM: 98%
[16]
  remaining binding at 10 µM: 96%
[17]
  remaining binding at 10 µM: 100%
[18]
  remaining binding at 10 µM: 100%
[19]
  remaining binding at 10 µM: 100%
[20]
  remaining binding at 10 µM: 79%
[21]
  remaining binding at 10 µM: 100%
